Results from patent publication US20230210797A1, “PREVENTING AND TREATING HYPOGLYCEMIA” (DIAMYD MEDICAL AB, priority 2019, published 2023).
Entries after “also recorded” stand apart in the source; their conditions may differ.

Key:
[1] = test system: norepinephrine; test: Hypoglycemic clamp: plasma norepinephrine levels; assay type: in vivo, human; conditions: for Norepinephrine, change from baseline, Mean (SD) / Norepinephrine, change from baseline, Median (Min, Max) / Norepinephrine, observed value, Mean (SD) / Norepinephrine, observed value, Median (Min, Max): C-peptide undetectable, n=5
Procedure: In order to evaluate the counterregulatory hormone response to hypoglycemia, a hypoglycemic clamp will be performed. The Hypoglycemic Clamp must be performed according to the instructions in the Operations Manual. (Appendix 3)
The patient should: • Come to the study site following an overnight fast (>10 hours), i.e. the patient may not eat but is permitted to drink water • Not have taken the Remygen and, if applicable, Alprazolam dose in the morning • Not take short acting/direct acting insulin within 6 hours before the investigation. • The patient is allowed to take base-insulin day/night before, but not in the morning before the investigation.
Patients with CSII (insulin pump) must continue with their basal dose insulin, but not add bolus dose during the last 6 hours before the investigation.
If a patient has a blood sugar level <4 mmol/L in the morning of the scheduled visit, the patient is allowed to take dextrose tablets and then come to the study site. The patient is allowed to perform the investigation if the blood sugar level is >4 mmol/L.
In the dose-escalation part of the study, the patient will take study drug 30 min prior to start of the hypoglycemic clamp. In the main study, the study drug will instead be taken after finalization of the hypoglycemic clamp. Baseline blood samples will be obtained for glucose, glucagon, epinephrine, norepinephrine, growth hormone and cortisol. The clamp will then be initiated by an intravenous insulin infusion at a rate of 2 mU×kg^−1×min^−1. Glucose 100 mg/ml will then be administered in variable infusion rates to clamp the blood glucose concentration at 5.5 mmol/land then at 2.5 mmol/land kept stable for 30 min. Blood glucose will be evaluated repeatedly in order to find the optimal glucose infusion rate. Blood sampling to determined levels of counterregulatory hormones as described above will be performed at each of these target levels when a stable glucose concentration has been reached. The insulin infusion will thereafter be terminated and the patient is allowed to eat and will be observed until normoglycemia is achieved. If necessary, additional glucose administration will be given to allow blood glucose concentrations to normalize.
Only patients with c-peptide levels that were undetectable (in a standard assay, i.e. <0.01 nmol/L) are included (5 of 6) in the data below.
Plasma levels of glucagon, cortisol, epinephrine, growth hormone and glucose were measured at baseline (increased glucose in T1D subjects). Plasma glucose was first lowered to normoglycemic levels (5.5 mmol/L) and hormone levels monitored, and then to hypoglycemic levels (2.5 mmol/L) and hormone levels monitored. Difference was calculated as a measurement of the response to hypoglycemia.

[2] = Time spent below, within and above normal blood glucose range (4-10 mmol/L), FreeStyle Libre Pro FGM; assay type: in vivo, human; conditions: for Time above range, Mean / Time above range, Median / Time below range, Mean / Time below range, Median / Time within range, Mean / Time within range, Median: normal blood glucose range 4-10 mmol/L, n=6
Source text: The FreeStyle Libre Pro FGM System is a professional glucose monitoring device indicated for detecting trends and tracking patterns and glucose level excursions above or below the desired range, facilitating therapy adjustments in persons with diabetes. Readings from the FreeStyle Libre Pro FGM System are not made available directly to patients in real time. The FreeStyle Libre Pro FGM System aids in the detection of episodes of hyperglycemia and hypoglycemia, facilitating therapy adjustments.
Patients will receive the Freestyle Libre Pro at the site at Visit 1 and Visit 2 in the Safety and Dose Escalation study and will be instructed how to return the FreeStyle Libre to the site after each of the testing period. For the main study patients will receive the Freestyle Libre Pro at the site during Visit 1 (all Treatment arms), Visit 7 (Treatment arm 1), Visit 8 (Treatment arm 2 and 3) and will be instructed how to return the FreeStyle Libre to the site after each of the testing period. However, for Visit 9 (Treatment arm 1) and Visit 10 (Treatment arm 2 and 3) patients will be instructed to come to the site 14 days before the visit to receive the Freestyle Libre and have it activated. The patients will then return the Freestyle Libre at Visit 9 or Visit 10, depending on treatment arm. The timing of the distribution of the glucose monitoring system and assessments is described in Above.
Blood glucose levels for all six patients in the dose escalation part of the study was measured during certain time intervals to determine time spent in, above, and below normal blood glucose range (4-10 mmol/L).

[3] = Visit 5, 200 mg GABA per day, event 2.5 mmol/L
[4] = Visit 5, 200 mg GABA per day, event 5.5 mmol/L
[5] = Visit 5, 200 mg GABA per day, event Baseline
[6] = Visit 5, 200 mg GABA per day, event Diff 2.5-5.5 mmol/L
[7] = Visit 7, 600 mg GABA per day, event 2.5 mmol/L
[8] = Visit 7, 600 mg GABA per day, event 5.5 mmol/L
[9] = Visit 7, 600 mg GABA per day, event Baseline
[10] = Visit 7, 600 mg GABA per day, event Diff 2.5-5.5 mmol/L
[11] = Visit 9, 1200 mg GABA per day, event 2.5 mmol/L
[12] = Visit 9, 1200 mg GABA per day, event 5.5 mmol/L
[13] = Visit 9, 1200 mg GABA per day, event Baseline
[14] = Visit 9, 1200 mg GABA per day, event Diff 2.5-5.5 mmol/L
[15] = normal range 4-10 mmol/L, all six patients of dose escalation part

## NCCCC(=O)O [GABA, Gamma-amino butyric acid]
[1]; [3]
  Norepinephrine, change from baseline, Mean (SD): −0.44 (0.61) nmol(L
  Norepinephrine, change from baseline, Median (Min, Max): −0.30 (−1.3, 0.2) nmol(L
  Norepinephrine, observed value, Mean (SD): 1.82 (0.41) nmol(L
  Norepinephrine, observed value, Median (Min, Max): 1.90 (1.4, 2.3) nmol(L
[1]; [4]
  Norepinephrine, change from baseline, Mean (SD): −0.16 (0.52) nmol(L
  Norepinephrine, change from baseline, Median (Min, Max): 0.00 (−0.9, 0.5) nmol(L
  Norepinephrine, observed value, Mean (SD): 1.78 (0.52) nmol(L
  Norepinephrine, observed value, Median (Min, Max): 1.60 (1.2, 2.5) nmol(L
[1]; [5]
  Norepinephrine, change from baseline, Mean (SD): −0.34 (0.53) nmol(L
  Norepinephrine, change from baseline, Median (Min, Max): −0.50 (−0.9, 0.5) nmol(L
  Norepinephrine, observed value, Mean (SD): 1.46 (0.35) nmol(L
  Norepinephrine, observed value, Median (Min, Max): 1.50 (1.1, 2.0) nmol(L
[1]; [6]
  Norepinephrine, change from baseline, Mean (SD): −0.28 (0.59) nmol(L
  Norepinephrine, change from baseline, Median (Min, Max): 0.00 (−1.3, 0.1) nmol(L
  Norepinephrine, observed value, Mean (SD): 0.04 (0.29) nmol(L
  Norepinephrine, observed value, Median (Min, Max): 0.20 (−0.4, 0.3) nmol(L
[1]; [7]
  Norepinephrine, change from baseline, Mean (SD): −0.56 (0.73) nmol(L
  Norepinephrine, change from baseline, Median (Min, Max): −0.50 (−1.6, 0.3) nmol(L
  Norepinephrine, observed value, Mean (SD): 1.70 (0.27) nmol(L
  Norepinephrine, observed value, Median (Min, Max): 1.70 (1.4, 2.1) nmol(L
[1]; [8]
  Norepinephrine, change from baseline, Mean (SD): −0.10 (0.31) nmol(L
  Norepinephrine, change from baseline, Median (Min, Max): −0.10 (−0.4, 0.3) nmol(L
  Norepinephrine, observed value, Mean (SD): 1.84 (0.34) nmol(L
  Norepinephrine, observed value, Median (Min, Max): 2.00 (1.3, 2.1) nmol(L
[1]; [9]
  Norepinephrine, change from baseline, Mean (SD): −0.32 (0.49) nmol(L
  Norepinephrine, change from baseline, Median (Min, Max): −0.30 (−0.9, 0.4) nmol(L
  Norepinephrine, observed value, Mean (SD): 1.48 (0.70) nmol(L
  Norepinephrine, observed value, Median (Min, Max): 1.20 (1.0, 2.7) nmol(L
[1]; [10]
  Norepinephrine, change from baseline, Mean (SD): −0.46 (0.50) nmol(L
  Norepinephrine, change from baseline, Median (Min, Max): −0.50 (−1.2, 0.0) nmol(L
  Norepinephrine, observed value, Mean (SD): −0.14 (0.27) nmol(L
  Norepinephrine, observed value, Median (Min, Max): −0.30 (−0.4, 0.2) nmol(L
[1]; [11]
  Norepinephrine, change from baseline, Mean (SD): −0.66 (0.68) nmol(L
  Norepinephrine, change from baseline, Median (Min, Max): −0.70 (−1.6, 0.0) nmol(L
  Norepinephrine, observed value, Mean (SD): 1.60 (0.42) nmol(L
  Norepinephrine, observed value, Median (Min, Max): 1.60 (1.2, 2.2) nmol(L
[1]; [12]
  Norepinephrine, change from baseline, Mean (SD): −0.46 (0.84) nmol(L
  Norepinephrine, change from baseline, Median (Min, Max): −0.20 (−1.7, 0.4) nmol(L
  Norepinephrine, observed value, Mean (SD): 1.48 (0.50) nmol(L
  Norepinephrine, observed value, Median (Min, Max): 1.40 (0.8, 2.2) nmol(L
[1]; [13]
  Norepinephrine, change from baseline, Mean (SD): −0.58 (0.59) nmol(L
  Norepinephrine, change from baseline, Median (Min, Max): −0.50 (−1.3, 0.2) nmol(L
  Norepinephrine, observed value, Mean (SD): 1.22 (0.35) nmol(L
  Norepinephrine, observed value, Median (Min, Max): 1.00 (0.9, 1.6) nmol(L
[1]; [14]
  Norepinephrine, change from baseline, Mean (SD): −0.20 (0.55) nmol(L
  Norepinephrine, change from baseline, Median (Min, Max): −0.40 (−0.7, 0.7) nmol(L
  Norepinephrine, observed value, Mean (SD): 0.12 (0.41) nmol(L
  Norepinephrine, observed value, Median (Min, Max): 0.00 (−0.2, 0.8) nmol(L
[1]; clamped to 5.5 mmol/L
  Normoglycemic levels of norepinephrine, effect of GABA treatment: decrease
[1]; dose escalation part, oral GABA, type 1 diabetes patients with undetectable c-peptide
  Baseline (no clamp) norepinephrine levels, effect of GABA treatment: downregulated; also recorded: decrease
[2]; Day 3 to 4
  Time above range, Mean: 28.7%
  Time above range, Median: 28.8%
  Time below range, Mean: 14.8%
  Time below range, Median: 14.3%
  Time within range, Mean: 56.6%
  Time within range, Median: 62.0%
[2]; Day 6 to 7
  Time above range, Mean: 37.7%
  Time above range, Median: 36.5%
  Time below range, Mean: 4.8%
  Time below range, Median: 4.0%
  Time within range, Mean: 57.6%
  Time within range, Median: 59.5%
[2]; Day 9
  Time above range, Mean: 39.5%
  Time above range, Median: 50.0%
  Time below range, Mean: 5.5%
  Time below range, Median: 2.5%
  Time within range, Mean: 55.0%
  Time within range, Median: 47.0%
[2]; [15]
  Time above normal blood glucose range, effect of GABA treatment: decreased
  Time below normal blood glucose range, effect of GABA treatment: decreased
  Time in normal blood glucose range, effect of GABA treatment: increased
